Measured values published in US20100216834A1, “HIV INTEGRASE INHIBITORS” (priority 2006, published 2010).
Where two headings read alike, the source gives them in different places.

Tests used:
[1] = target: T1, recombinant integrase (HIV integrase) (Human immunodeficiency virus type 1 group M subtype B, UniProt P04585); experiment: HIV integrase assay: strand transfer catalyzed by recombinant integrase; type: biochemical
T1 construct: Strand Transfer Catalyzed by Recombinant Integrase
Experimental: Assays for the strand transfer activity of integrase were conducted in accordance with WO 02/30930 for recombinant integrase. […] For example, the compounds prepared in Examples 1 to 3 were tested in the integrase assay and found to have the following IC50 values:
Further description on conducting the assay using preassembled complexes is found in Wolfe, A. L. et al., J. Virol. 1996, 70: 1424-1432, Hazuda et al., J. Virol. 1997, 71: 7005-7011; Hazuda et al., Drug Design and Discovery 1997, 15: 17-24; and Hazuda et al., Science 2000, 287: 646-650.

HIV = experiment: Assay for inhibition of HIV replication (spread assay): acute HIV infection of T-lymphoid cells; type: cell-based
Experimental: Assays for the inhibition of acute HIV infection of T-lymphoid cells were conducted in accordance with Vacca, J. P. et al., Proc. Natl. Acad. Sci. USA 1994, 91: 4096. […] For example, the compounds of Examples 1 to 3 were tested in this assay and found to have the following IC95 values: […]

[2] = IC50 (inhibition of strand transfer activity)

| Compound | IC50 [1, 2] [nM] | IC95 in the presence of 10% FBS (HIV) [nM] | IC50 ([1]; read-out: IC50 (inhibition of strand transfer activity)) [nM] |
| --- | --- | --- | --- |
| CC1CCCN(C)C(=O)c2c3c(c(O)c(=O)n21)C(=O)N(Cc1ccc(F)c(Cl)c1)CC3 (single isomer, unassigned) [Ex. 3 - Diasteromer A-3, 11-(3-Chloro-4-fluorobenzyl)-9-hydroxy-2,6-dimethyl-3,4,5,6,12,13-hexahydro-2H[1,4]diazocino[2,1-a]-2,6-naphthyridine-1,8,10(11H)-trione] | 17 | 125 | – |
| CC1CCCN(C)C(=O)c2c3c(c(O)c(=O)n21)C(=O)N(Cc1ccc(F)c(Cl)c1)CC3 (single isomer, unassigned) [Ex. 3 - Diasteromer B-3, 11-(3-Chloro-4-fluorobenzyl)-9-hydroxy-2,6-dimethyl-3,4,5,6,12,13-hexahydro-2H[1,4]diazocino[2,1-a]-2,6-naphthyridine-1,8,10(11H)-trione] | 17 | 11 | – |
| CC1CCCN(C)C(=O)c2c3c(c(O)c(=O)n21)C(=O)N(Cc1ccc(F)c(Cl)c1)CC3 (single isomer, unassigned) [Ex. 3 - Diasteromer D-3, 11-(3-Chloro-4-fluorobenzyl)-9-hydroxy-2,6-dimethyl-3,4,5,6,12,13-hexahydro-2H[1,4]diazocino[2,1-a]-2,6-naphthyridine-1,8,10(11H)-trione] | 8 | 8 | – |
| CN1C[C@H](O)C(C)(C)Cn2c(c3c(c(O)c2=O)C(=O)N(Cc2ccc(F)c(Cl)c2)CC3)C1=O (single isomer, unassigned) [Ex. 1 - Isomer A-1] | 14 | 15 | – |
| CN1C[C@@H](O)C(C)(C)Cn2c(c3c(c(O)c2=O)C(=O)N(Cc2ccc(F)c(Cl)c2)CC3)C1=O (single isomer, unassigned) [Ex. 2] | – | 31 | 3 |
| CC1CCCN(C)C(=O)c2c3c(c(O)c(=O)n21)C(=O)N(Cc1ccc(F)c(Cl)c1)CC3 (single isomer, unassigned) [Ex. 3 - Diasteromer C-3, 11-(3-Chloro-4-fluorobenzyl)-9-hydroxy-2,6-dimethyl-3,4,5,6,12,13-hexahydro-2H[1,4]diazocino[2,1-a]-2,6-naphthyridine-1,8,10(11H)-trione] | 8 | 250 | – |
| CN1C[C@H](O)C(C)(C)Cn2c(c3c(c(O)c2=O)C(=O)N(Cc2ccc(F)c(Cl)c2)CC3)C1=O (single isomer, unassigned) [Ex. 1 - Isomer B-1] | 21 | 31 | – |
